What was measured:
BMDMs = test: A1155463 in-vitro training assay in BMDMs; assay type: cell-based, mouse; conditions: 24 hours after challenge, vs PBS-trained
Protocol: FIGS. 5A-5F: Testing A1155463 as an inducer of trained immunity (TI) in vitro. FIG. 5A is a schematic diagram for in-vitro TI assay in bone marrow-derived macrophages (BMDMs). FIG. 5B is a graph showing interleukin-6 (IL-6) levels (expressed in picograms per milliliter (pg/ml) 24 hours (h) post PAM3-CSK4 (Pam3) challenge in an in-vitro TI assay in BMDMs trained with either phosphate buffered saline (PBS) (black) or A1155463 (pink); n=15. FIG. 5C is a graph showing tumor necrosis factor alpha (TNF-α) levels (pg/ml) 24 h post Pam3 challenge in an in-vitro TI assay in BMDMs trained with either PBS (black) or A1155463 (pink); n=10. FIG. 5D is a graph showing IL-6 levels (pg/ml) 24 h post-stimulation with PBS (black) or A1155463 (pink); n=3. FIG. 5E is a graph showing the fold change in TNF-α following Pam3 challenge in BMDMs trained with A1155463 pre-treated with PBS, MTA (histone methyl transferase inhibitor), EGCG (histone acetyltransferase inhibitor) or 2-DG (glycolysis inhibitor); n=15, significance compared with PBS control of each inhibitor. FIG. 5F is a graph of IL-6 levels (pg/ml) 24 h post Pam3 challenge in an in-vitro TI assay in BMDMs trained with either PBS (black) or A1155463 (pink) pretreated with varying concentrations of 2-DG; n=5.
A1155463 is a commercially available inhibitor of the B-cell lymphoma-extra large (Bcl-xL) protein. […]

RAW-Blue cells = test: RAW-Blue NF-kb reporter assay; assay type: cell-based; conditions: after 18 hours
Protocol: FIG. 8: RAW-Blue assay: RAW-Blue cells (100,000 cells per well) were incubated with PBS (black), A1155463 (pink) or 100 ng/mL LPS (green) for 18 h.
Bcl-xL is an anti-apoptotic protein with some role in mediating inflammatory reactions.^32,33 Most documented inducers of trained immunity elicit an initial immune response upon administration. However, A1155463 has never been reported elicit inflammatory responses in vitro. To test if A1155463 elicited an enhanced innate response on its own in vitro, supernatant from BMDMs cultured with A1155463 for 24 hours was analyzed. […] The non-immunogenicity of A1155463 was validated using an NF-kb reporter cell line. […] Taken together, this evidence supports that A1155463 is a non-immunogenic trained immunity inducing molecule.

bone-marrow cells = test: Bone-marrow cells of trained mice challenged ex-vivo with LPS; assay type: in vivo, mouse; conditions: 5 ng/mL LPS ex vivo, 24 hours
Protocol: (§1) FIGS. 6A-6H: in-vivo A1155463 trained immunity (TI) assays. FIG. 6A is a schematic showing the in-vivo training schedule. Mice were dosed intraperitoneally (i.p.) with training material (PBS or A1155463 at 15 milligrams per kilogram body weight (mg/kg)) daily for six days. Mice were challenged with […] lipopolysaccharide (LPS) on day 7. FIG. 6B is a graph showing the interleukin-6 (IL-6) and tumor necrosis factor-alpha (TNF-α) levels (expressed as picograms per milliliter (pg/ml) 1 hour (h) following LPS challenge with either PBS (black) or A1155463 (pink); n=5. FIG. 6C is a graph showing the percentage (%) of small peritoneal macrophages (SPMs) from the peritoneal cavity of PBS (black) or A1155463 trained (pink) mice 2 h post LPS challenge on day 7. FIG. 6D is a graph showing the IL-6 levels (pg/ml) from bone-marrow cells isolated on day 7 challenged ex-vivo with LPS from either PBS (black) or A1155463 (pink) trained mice; n=3. FIG. 6E is a schematic showing the in-vivo training schedule for B16.F10 tumor challenge. […]
Apart from increased systemic cytokines, recruitment of monocyte-derived small peritoneal macrophages (SPMs) is another hallmark of enhanced training. […] Bone-marrow cells from PBS or A1155463 trained cells were challenged with 5 ng/mL of LPS and the supernatant was analyzed 24 hours later. […]

B16.F10 tumors = test: B16.F10 tumor model after A1155463 training; assay type: in vivo, mouse
Protocol: as §1, with “challenge. FIG. 6F is a graph showing the tumor volumes (in cubic millimeters (mm3)) of mice trained with PBS (black) or A1155463 (pink) mice; n=8. FIG. 6G is a schematic of the in-vivo training schedule for B16.F10 tumor challenge with checkpoint therapy (CPT) administered on day 14 and 17.” for “challenge.”

In the case of `CN(C)CC#Cc1ccc(OCCCc2sc(N3CCc4cccc(C(=O)Nc5nc6ccccc6s5)c4C3)nc2C(=O)O)c(F)c1` [A1155463, 2-(8-(benzo[d]thiazol-2-ylcarbamoyl)-3,4-dihydroisoquinolin-2(1H)-yl)-5-(3-(4-(3-(dimethyl-amino)prop-1-yn-1-yl)-2-fluorophenoxy)propyl)thiozole-4-carboxylic acid], the “increase in IL-6 following Pam3 challenge” value (BMDMs) is reported as “approximately 1.2 fold”, the “increase in TNF-α following Pam3 challenge” value (BMDMs) is reported as “approximately 1.2 fold” and the “NF-kb reporter signal vs PBS-treated cells” value (RAW-Blue cells) is reported as “No significant difference”. For the same molecule, the “increase in bone-marrow derived IL-6 levels vs untrained control” value (bone-marrow cells) was “approximately 5 fold”, the “tumor growth vs untrained (vehicle) control” value (B16.F10 tumors; 15 mg/kg daily for 6 days, s.c. B16.F10 24 hours after last dosing) was “significant decrease in tumor growth” and the “tumor growth with checkpoint therapy” value (B16.F10 tumors; plus anti-PDL1 and anti-CTLA-4 on days 14 and 17) was “Significantly reduced tumor growth”.

From patent US20240398785A1, “SMALL MOLECULE DRUGS FOR THE INDUCTION OF TRAINED IMMUNITY” (THE UNIVERSITY OF CHICAGO, priority 2023, published 2024)
